Test results taken from US20230391739A1, “ARYL DERIVATIVES FOR TREATING TRPM3 MEDIATED DISORDERS” (Katholieke Universiteit Leuven, priority 2020, published 2023).

The compounds below were run against T1, mouse TRPM3α2 (mTRPM3) ion channel (Mus musculus, UniProt J9SQF3) (assay: TRPM3 ion channel driven Ca2+ uptake, Fluo-4 AM assay, PS-stimulated (mTRPM3)). Conditions: TRPM3 overexpressing flip-in HEK293 cells stimulated with Pregnenolone sulfate (PS) 50 μM, activity ranges A, B, C.
T1 construct: expressed in transfected cells; host or cells: flip-in HEK293
T1 sequence (J9SQF3 1-1709 isoform J9SQF3-12): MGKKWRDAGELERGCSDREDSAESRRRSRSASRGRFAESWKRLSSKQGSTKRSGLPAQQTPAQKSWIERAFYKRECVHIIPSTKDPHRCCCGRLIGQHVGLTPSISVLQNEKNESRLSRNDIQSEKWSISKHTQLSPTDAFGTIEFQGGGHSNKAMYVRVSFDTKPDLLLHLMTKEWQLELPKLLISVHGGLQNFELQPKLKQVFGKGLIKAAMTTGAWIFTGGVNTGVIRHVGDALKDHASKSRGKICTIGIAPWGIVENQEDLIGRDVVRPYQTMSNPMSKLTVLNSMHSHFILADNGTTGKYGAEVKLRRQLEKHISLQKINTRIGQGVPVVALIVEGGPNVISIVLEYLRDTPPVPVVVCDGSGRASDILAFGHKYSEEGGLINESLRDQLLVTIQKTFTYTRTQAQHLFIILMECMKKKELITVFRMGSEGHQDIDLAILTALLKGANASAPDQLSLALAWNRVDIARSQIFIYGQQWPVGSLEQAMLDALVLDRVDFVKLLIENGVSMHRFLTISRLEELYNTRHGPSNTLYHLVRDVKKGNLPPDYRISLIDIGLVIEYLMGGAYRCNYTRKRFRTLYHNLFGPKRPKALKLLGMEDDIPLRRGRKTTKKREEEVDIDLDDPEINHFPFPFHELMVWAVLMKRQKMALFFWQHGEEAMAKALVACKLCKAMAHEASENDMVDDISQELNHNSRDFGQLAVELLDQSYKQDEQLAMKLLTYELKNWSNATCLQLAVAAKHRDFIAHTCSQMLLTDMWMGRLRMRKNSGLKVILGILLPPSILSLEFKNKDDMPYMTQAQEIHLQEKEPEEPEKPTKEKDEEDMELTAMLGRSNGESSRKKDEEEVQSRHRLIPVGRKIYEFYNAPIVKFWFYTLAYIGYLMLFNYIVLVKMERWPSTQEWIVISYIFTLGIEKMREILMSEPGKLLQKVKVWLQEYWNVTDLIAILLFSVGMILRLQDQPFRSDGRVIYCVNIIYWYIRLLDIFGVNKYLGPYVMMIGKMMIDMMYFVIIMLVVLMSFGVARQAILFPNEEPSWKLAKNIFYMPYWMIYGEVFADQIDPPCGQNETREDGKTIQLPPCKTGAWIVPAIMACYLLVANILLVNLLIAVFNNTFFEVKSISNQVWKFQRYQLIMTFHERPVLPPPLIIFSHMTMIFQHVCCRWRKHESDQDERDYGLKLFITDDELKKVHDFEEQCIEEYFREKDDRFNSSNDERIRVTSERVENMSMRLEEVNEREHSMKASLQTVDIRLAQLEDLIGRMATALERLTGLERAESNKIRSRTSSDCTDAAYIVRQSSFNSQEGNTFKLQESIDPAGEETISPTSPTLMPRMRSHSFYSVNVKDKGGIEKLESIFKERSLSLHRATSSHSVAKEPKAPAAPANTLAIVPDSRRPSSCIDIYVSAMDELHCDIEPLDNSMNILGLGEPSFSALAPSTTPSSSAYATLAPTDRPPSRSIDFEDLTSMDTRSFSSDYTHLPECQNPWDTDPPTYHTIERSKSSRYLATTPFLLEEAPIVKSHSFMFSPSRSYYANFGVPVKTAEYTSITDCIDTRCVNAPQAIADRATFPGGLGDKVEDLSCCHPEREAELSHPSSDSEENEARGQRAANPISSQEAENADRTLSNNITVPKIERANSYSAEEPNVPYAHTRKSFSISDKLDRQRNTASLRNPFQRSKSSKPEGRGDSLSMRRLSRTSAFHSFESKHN
Assay type: cell-based
How it was run: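 Ca²⁺ influx through mouse TRPM3α2, opened by 50 μM pregnenolone sulfate, was tracked with Fluo-4 AM in stably transfected HEK293 cells read directly after seeding onto pre-dispensed compound.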

Row | Structure (SMILES) | IC50 [nM]
1 | Cc1cc(C)c(CNC(=O)c2c(C)oc3ccc(OCc4ccccc4)cc23)c(=O)[nH]1 [Cpd 200, 5-(benzyloxy)-N-((4,6-dimethyl-2-oxo-1,2-dihydropyridin-3-yl)methyl)-2-methylbenzofuran-3-carboxamide] | > 20000
2 | Cc1oc2ccc(OCc3ccccc3)cc2c1C(=O)NC1CC1 [Cpd 039, 5-(benzyloxy)-N-cyclopropyl-2-methylbenzofuran-3-carboxamide] | 1000 to 20000
3 | Cc1oc2ccc(OCc3ccccc3S(C)(=O)=O)cc2c1C(=O)NC1(CO)CCOCC1 [Cpd 332, N-(4-(hydroxymethyl)tetrahydro-2H-pyran-4-yl)-2-methyl-5-((2-(methylsulfonyl)benzyl)oxy)benzofuran-3-carboxamide] | 1000 to 20000
4 | Cc1oc2ccc(OCc3ccccc3)cc2c1C(=O)NC1CCN(C(=O)OC(C)(C)C)CC1 [Cpd 249, tert-butyl 4-(5-(benzyloxy)-2-methylbenzofuran-3-carboxamido)piperidine-1-carboxylate] | 1000 to 20000
5 | Cc1oc2ccc(OCc3ccccc3)cc2c1C(=O)N1CCOCC1 [Cpd 050, (5-(benzyloxy)-2-methylbenzofuran-3-yl)(morpholino)methanone] | > 20000
6 | Cc1oc2ccc(OCc3cccc(OC(F)(F)F)c3)cc2c1C(=O)O [Cpd 028, 2-methyl-5-((3-(trifluoromethoxy)benzyl)oxy)benzofuran-3-carboxylic acid] | > 20000
7 | Cc1oc2ccc(OCc3ccccc3)cc2c1C(=O)N[C@@H]1C[C@H]2CC[C@@H](C1)N2C [Cpd 182, 5-(benzyloxy)-2-methyl-N-((1R,3s,5S)-8-methyl-8-azabicyclo[3.2.1]octan-3-yl)benzofuran-3-carboxamide] | < 1000
8 | Cc1oc2cc(Cl)c(OCc3ccccc3)cc2c1C(=O)NC1CNCC1(F)F (single isomer, unassigned) [Cpd 300-En 1, 5-(benzyloxy)-6-chloro-N-(4,4-difluoropyrrolidin-3-yl)-2-methylbenzofuran-3-carboxamide] | 1000 to 20000
9 | Cc1oc2ccc(OCc3ccccc3)cc2c1C(=O)N1CCN(c2ccccn2)CC1 [Cpd 214, (5-(benzyloxy)-2-methylbenzofuran-3-yl)(4-(pyridin-2-yl)piperazin-1-yl)methanone] | 1000 to 20000
10 | Cc1oc2ccc(OCc3ccccc3)c(F)c2c1C(=O)NC1CNCC1(F)F (single isomer, unassigned) [Cpd 298-En 2, 5-(benzyloxy)-N-(4,4-difluoropyrrolidin-3-yl)-4-fluoro-2-methylbenzofuran-3-carboxamide] | 1000 to 20000
11 | Cc1oc2c(C#N)cc(OCc3ccccc3)cc2c1C(=O)NC1CNCC1(F)F (single isomer, unassigned) [Cpd 305-En 2, 5-(benzyloxy)-7-cyano-N-(4,4-difluoropyrrolidin-3-yl)-2-methylbenzofuran-3-carboxamide] | > 20000
12 | Cc1oc2ccc(OCc3ccccc3OCCN(C)C)cc2c1C(=O)NC1CCN(C)CC1 [Cpd 250, 5-((2-(2-(dimethylamino)ethoxy)benzyl)oxy)-2-methyl-N-(1-methylpiperidin-4-yl)benzofuran-3-carboxamide] | > 20000
13 | Cc1oc2ccc(OC(C)c3ccccc3)cc2c1C(=O)O (stereo not drawn) [Cpd 004, 2-methyl-5-(1-phenylethoxy)benzofuran-3-carboxylic acid] | 1000 to 20000
14 | Cc1oc2ccc(OCc3ccccc3)cc2c1C(=O)N1CCC(C(=O)OC(C)(C)C)CC1 [Cpd 237, tert-butyl 1-(5-(benzyloxy)-2-methylbenzofuran-3-carbonyl)piperidine-4-carboxylate] | > 20000
15 | Cc1oc2ccc(OCc3cccc(F)c3)cc2c1C(=O)NC1CCN(C)CC1 [Cpd 168, 5-((3-fluorobenzyl)oxy)-2-methyl-N-(1-methylpiperidin-4-yl)benzofuran-3-carboxamide] | 1000 to 20000
16 | Cc1oc2ccc(OCc3ccccc3)cc2c1C(=O)N(C)C1CCN(C)CC1 [Cpd 156, 5-(benzyloxy)-N,2-dimethyl-N-(1-methylpiperidin-4-yl)benzofuran-3-carboxamide] | 1000 to 20000
17 | Cc1oc2ccc(OCc3ccccc3)cc2c1C(=O)Nc1cccnn1 [Cpd 062, 5-(benzyloxy)-2-methyl-N-(pyridazin-3-yl)benzofuran-3-carboxamide] | > 20000
18 | Cc1oc2ccc(OCc3ccccc3)cc2c1C(=O)N1CCCC(c2nc(C(C)C)no2)C1 (stereo not drawn) [Cpd 243, (5-(benzyloxy)-2-methylbenzofuran-3-yl)(3-(3-isopropyl-1,2,4-oxadiazol-5-yl)piperidin-1-yl)-methanone] | > 20000
19 | Cc1nc(C)n(CCNC(=O)c2c(C)oc3ccc(OCc4ccccc4)cc23)n1 [Cpd 179, 5-(benzyloxy)-N-(2-(3,5-dimethyl-1H-1,2,4-triazol-1-yl)ethyl)-2-methylbenzofuran-3-carboxamide] | 1000 to 20000
20 | Cc1oc2ccc(OCc3ccccc3)cc2c1C(=O)NC1CC(C)(C)NC(C)(C)C1 [Cpd 209, 5-(benzyloxy)-2-methyl-N-(2,2,6,6-tetramethylpiperidin-4-yl)benzofuran-3-carboxamide] | 1000 to 20000
21 | Cc1ccc(COc2ccc3oc(C)c(C(=O)NC4CCN(C)CC4)c3c2)cc1 [Cpd 154, 2-methyl-5-((4-methylbenzyl)oxy)-N-(1-methylpiperidin-4-yl)benzofuran-3-carboxamide] | 1000 to 20000

Further lines, results first:

Row | IC50 [nM] | Structure (SMILES)
22 | < 1000 | Cc1oc2ccc(OC(C)c3ccccc3)cc2c1C(=O)N[C@@H](CO)C(N)=O (single isomer, unassigned) [Cpd 336-Dia 2]
23 | 1000 to 20000 | Cc1oc2ccc(OCc3ccccc3)cc2c1C(=O)NC1CCN(CCN(C)C)CC1 [Cpd 225, 5-(benzyloxy)-N-(1-(2-(dimethylamino)ethyl)piperidin-4-yl)-2-methylbenzofuran-3-carboxamide]
24 | < 1000 | Cc1oc2ccc(OCc3ccccc3)cc2c1C(=O)Nc1cnccn1 [Cpd 061, 5-(benzyloxy)-2-methyl-N-(pyrazin-2-yl)benzofuran-3-carboxamide]
25 | 1000 to 20000 | Cc1oc2ccc(OCc3cccc(OC(F)(F)F)c3)cc2c1C(=O)NC1CCN(C)CC1 [Cpd 244, 2-methyl-N-(1-methylpiperidin-4-yl)-5-((3-(trifluoromethoxy)benzyl)oxy)benzofuran-3-carboxamide]
26 | < 1000 | Cc1oc2ccc(OCc3ccccc3)cc2c1C(=O)Nc1ccncc1 [Cpd 060, 5-(benzyloxy)-2-methyl-N-(pyridin-4-yl)benzofuran-3-carboxamide]
27 | 1000 to 20000 | Cc1oc2c(F)cc(OCc3ccccc3)cc2c1C(=O)NC1CNCC1(F)F (single isomer, unassigned) [Cpd 306-En 2]
28 | < 1000 | COC(=O)C1(NC(=O)c2c(C)oc3ccc(OCc4ccccc4)cc23)CCOCC1 [Cpd 212, methyl 4-(5-(benzyloxy)-2-methylbenzofuran-3-carboxamido)tetrahydro-2H-pyran-4-carboxylate]
29 | < 1000 | Cc1oc2ccc(OCc3ccccc3)cc2c1C(=O)N[C@@H]1CCNC1 [Cpd 048, (R)-5-(benzyloxy)-2-methyl-N-(pyrrolidin-3-yl)benzofuran-3-carboxamide]
30 | 1000 to 20000 | Cc1oc2ccc(OCc3ccccc3)cc2c1C(=O)NCc1cccnc1 [Cpd 100, 5-(benzyloxy)-2-methyl-N-(pyridin-3-ylmethyl)benzofuran-3-carboxamide]
31 | < 1000 | Cc1oc2cc(F)c(OCc3ccccc3)cc2c1C(=O)NC1CNCC1(F)F (single isomer, unassigned) [Cpd 302-En 2, 5-(benzyloxy)-N-(4,4-difluoropyrrolidin-3-yl)-6-fluoro-2-methylbenzofuran-3-carboxamide]
32 | < 1000 | Cc1oc2ccc(OCc3ccccc3F)cc2c1C(=O)NC(C)CO (single isomer, unassigned) [Cpd 328-En 1]
33 | < 1000 | Cc1oc2ccc(OC(C)c3ccccc3)cc2c1C(=O)NC1(CO)CCOCC1 (single isomer, unassigned) [Cpd 308-En 1, N-(4-(hydroxymethyl)tetrahydro-2H-pyran-4-yl)-2-methyl-5-(1-phenylethoxy)benzofuran-3-carboxamide]
34 | < 1000 | CCN1CCC(NC(=O)c2c(C)oc3ccc(OCc4ccccc4)cc23)CC1 [Cpd 151, 5-(benzyloxy)-N-(1-ethylpiperidin-4-yl)-2-methylbenzofuran-3-carboxamide]
35 | < 1000 | Cc1oc2ccc(OCc3c(F)cccc3Cl)cc2c1C(N)=O [Cpd 041, 5-((2-chloro-6-fluorobenzyl)oxy)-2-methylbenzofuran-3-carboxamide]
36 | < 1000 | Cc1oc2ccc(OCc3ccccc3)cc2c1C(=O)NC1CCN(C(=O)OC(C)(C)C)CC1(F)F (stereo not drawn) [Cpd 263, tert-butyl 4-(5-(benzyloxy)-2-methylbenzofuran-3-carboxamido)-3,3-difluoropiperidine-1-carboxylate]
37 | < 1000 | Cc1oc2ccc(OCc3ccccc3)cc2c1C(=O)NCC1CCCO1 (stereo not drawn) [Cpd 087, 5-(benzyloxy)-2-methyl-N-((tetrahydrofuran-2-yl)methyl)benzofuran-3-carboxamide]
38 | < 1000 | Cc1oc2ccc(COc3ccccc3F)cc2c1C(=O)NC(C)C(N)=O (single isomer, unassigned) [Cpd 320-En 2]
39 | < 1000 | Cc1oc2ccc(OCc3ccccc3)cc2c1C(=O)NC1(CN)CCC1 [Cpd 082, N-(1-(aminomethyl)cyclobutyl)-5-(benzyloxy)-2-methylbenzofuran-3-carboxamide]
40 | < 1000 | Cc1oc2ccc(OCc3ccccc3)cc2c1C(=O)NC1COC1 [Cpd 043, 5-(benzyloxy)-2-methyl-N-(oxetan-3-yl)benzofuran-3-carboxamide]
41 | < 1000 | CCN1CCC[C@@H]1CNC(=O)c1c(C)oc2ccc(OCc3ccccc3)cc12 [Cpd 153, (R)-5-(benzyloxy)-N-((l-ethylpyrrolidin-2-yl)methyl)-2-methylbenzofuran-3-carboxamide]
42 | < 1000 | Cc1oc2ccc(OCc3ccccc3)cc2c1C(=O)NC1CCNCC1F (stereo not drawn) [Cpd 131, 5-(benzyloxy)-N-(3-fluoropiperidin-4-yl)-2-methylbenzofuran-3-carboxamide]
